Measurements taken from US7553837B2, “Phenylazole compounds production process and antioxidants” (Nippon Soda Co., Ltd., priority 2003, dated 2009).

Assays:
[1] = tested on: lipid peroxidation activity in a rat brain homogenate; assay: In vitro lipid peroxidation inhibition (rat brain homogenate, thiobarbituric acid process); assay type: biochemical; details: read-out: In vitro lipid peroxidation inhibition 50% inhibitory concentration (IC50 μM), 500 μM cysteine, 5 μM sulfuric acid monobasic iron, 100 mM KCl, 37° C. for 30 minutes
Experimental: (§1) An in vitro lipid peroxidation inhibition of the compounds of the present invention was evaluated by measuring a lipid peroxidation activity in a rat brain homogenate according to a process of Malvy, c., et al., Biochemical and Biophysical Research Communications, 1980, Vol. 95, p. 734-737. That is, a rat brain was extracted and a 5-fold amount of an aqueous phosphoric acid buffered saline solution (pH 7.4) (hereinafter abbreviated to PBS) was added to the brain under ice cooling, followed by homogenization using a Teflon homogenizer and further centrifugation at 10,000 g for 20 minutes to prepare a brain homogenate as a supernatant. To the brain homogenate thus prepared, 500 μM cysteine, 5 μM sulfuric acid monobasic iron and 100 mM KCl were added, followed by incubation at 37° C. for 30 minutes. Malondialdehyde produced by the […] of lipid peroxidation was measured by a thiobarbituric acid process.

[2] = tested on: abnormal behavior and fatality due to ferrous chloride; assay: In vivo antioxidative activity: ferrous chloride administration into spinal subarachnoid cavity of mice; design: species or system Slc:ICR male mice; details: score after 60 minutes; for In vivo antioxidation action 50% inhibitory concentration (ID50), Intraperitoneal administration: intraperitoneal administration 30 minutes before ferrous chloride into spinal canal; for In vivo antioxidation action 50% inhibitory concentration (ID50), Oral administration: oral administration 30 minutes before ferrous chloride into spinal canal
Experimental: An in vivo antioxidative activity of the compounds of the present invention was evaluated from an abnormal behavior due to administration of ferrous chloride into spinal subarachnoid cavity of mice as well as an inhibitory effect of a fatality rate according to the process described in J. Med. Chem., 1997, Vol. 40, p. 559-573. Using Slc:ICR male mice (one group: 3 to 7 mice, 5 weeks old) (available from Nippon SLC Co., Ltd.), 5 μl of a 50 mM ferrous chloride physiological saline solution was administered to the spinal canal through the space between the fifth lumbar vertebrae and the sixth lumbar vertebrae. 20 to 60 minutes after administration of ferrous chloride, symptoms were observed and a score after 60 minutes was determined from symptoms shown in Table 32. […] As is apparent from the results, the compounds of the present invention have an in vivo antioxidation action.

[3] = tested on: lipid peroxidation activity of each tissue homogenate (brain, heart and kidney); assay: Tissue migration properties: ex vivo lipid peroxidation inhibition in brain, heart and kidney homogenates; details: SD male rats, 100 mg/kg intraperitoneally, 30 minutes after administration; for Ex vivo lipid peroxidation inhibition inhibition ratio (%) Brain: brain homogenate; for Ex vivo lipid peroxidation inhibition inhibition ratio (%) Heart: heart homogenate; for Ex vivo lipid peroxidation inhibition inhibition ratio (%) Kidney: kidney homogenate
Experimental: as §1
Tissue migration properties of the compounds of the present invention were evaluated by measuring an ex vivo lipid peroxidation inhibition. A solution or suspension prepared by dissolving or suspending each of test compounds in an aqueous physiological saline solution or a 1% poly oxy ethylene hydrogenated castor oil (NIKKOL HCO-60, manufactured by Nikko Chemicals Co., Ltd.) physiological saline solution was intraperitoneally administered to SD male rats (one group: 3 rats, 6 weeks old) (available from Nippon SLC Co., Ltd.) at a dose of 100 mg/kg. 30 Minutes after administration, rats were bled to death by cutting the carotid artery and then the brain, heart and kidney were extracted. A lipid peroxidation activity of each tissue homogenate was measured by the process described in Example 18. An inhibition ratio in each tissue of the compounds of the present invention was determined from the amount of lipid peroxidation produced of a control group (physiological saline administration group) and a test compound administration group.

[4] = Acute oral toxicity, single oral dose, mortality rate after 7 days; details: mouse, in vivo, male mice, observed for 7 days
Experimental: A single dose of each of the compounds of the present invention was orally administered to male mice. After observing for 7 days, a mortality rate was determined.

5-lipoxygenase (5-LO) = target: T1, 5-lipoxygenase (5-LO) (Homo sapiens, UniProt P09917); assay: 5-lipoxygenase (5-LO) inhibitory activity, leukotriene B4 production in human peripheral blood mononuclear cells; assay type: cell-based; details: for IC50: human peripheral blood mononuclear cells, A23187, leukotriene B4 production; for 5-LO, percentage given after >10: bracketed value beside IC50 >10 μM, not explained, presumably inhibition at 10 μM
T1 construct: human peripheral blood mononuclear cells and each of test compounds dissolved in DMSO (final concentration: 1%) were preincubated; endogenous in cells; host or cells: human peripheral blood mononuclear cells
T1 sequence (P09917 1-674): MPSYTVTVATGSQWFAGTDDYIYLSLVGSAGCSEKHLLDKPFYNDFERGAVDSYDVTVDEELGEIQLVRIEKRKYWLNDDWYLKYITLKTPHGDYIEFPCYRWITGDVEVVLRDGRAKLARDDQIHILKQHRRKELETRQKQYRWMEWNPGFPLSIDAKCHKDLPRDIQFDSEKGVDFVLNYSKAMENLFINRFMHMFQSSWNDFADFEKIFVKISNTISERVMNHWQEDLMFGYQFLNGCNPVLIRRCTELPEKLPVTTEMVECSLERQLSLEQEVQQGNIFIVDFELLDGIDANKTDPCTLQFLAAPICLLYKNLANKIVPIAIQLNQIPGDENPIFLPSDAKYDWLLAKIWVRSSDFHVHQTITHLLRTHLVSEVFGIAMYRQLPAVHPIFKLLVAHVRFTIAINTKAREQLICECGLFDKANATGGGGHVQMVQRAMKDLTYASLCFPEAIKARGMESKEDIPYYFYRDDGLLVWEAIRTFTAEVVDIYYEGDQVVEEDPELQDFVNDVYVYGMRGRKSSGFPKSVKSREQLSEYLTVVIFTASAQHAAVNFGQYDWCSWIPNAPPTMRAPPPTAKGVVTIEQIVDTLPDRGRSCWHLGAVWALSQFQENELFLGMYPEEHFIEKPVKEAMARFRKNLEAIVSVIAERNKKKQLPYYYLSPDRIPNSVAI
Experimental: A 5-LO inhibitory activity was measured by a partially modified process of a process of Carter et al. (Carter G. W, et al, J. Pharmacol. Exp. Ther.: 256, 929-37, 1991). That is, human peripheral blood mononuclear cells and each of test compounds dissolved in DMSO (final concentration: 1%) were preincubated (37° C., 15 minutes) in a Hanks' balanced salt solution and 30 μM A23187 was further added, followed by incubation (37° C., 30 minutes). The amount of leukotriene B4 produced as a result of incubation was determined by enzyme immunoassay and a 50% production inhibitory concentration (μM) against 5-LO of each test compound was calculated.

[5] = target: T2, 15-LO obtained from reticulocyte of rabbit (Oryctolagus cuniculus, UniProt P12530); assay: 15-lipoxygenase (15-LO) inhibitory activity, 15-HETE production; assay type: biochemical; details: 15-LO from reticulocyte of rabbit, linoleic acid
T2 construct: 15-LO obtained from reticulocyte of rabbit; from tissue; host or cells: rabbit reticulocytes
T2 sequence (P12530 1-663): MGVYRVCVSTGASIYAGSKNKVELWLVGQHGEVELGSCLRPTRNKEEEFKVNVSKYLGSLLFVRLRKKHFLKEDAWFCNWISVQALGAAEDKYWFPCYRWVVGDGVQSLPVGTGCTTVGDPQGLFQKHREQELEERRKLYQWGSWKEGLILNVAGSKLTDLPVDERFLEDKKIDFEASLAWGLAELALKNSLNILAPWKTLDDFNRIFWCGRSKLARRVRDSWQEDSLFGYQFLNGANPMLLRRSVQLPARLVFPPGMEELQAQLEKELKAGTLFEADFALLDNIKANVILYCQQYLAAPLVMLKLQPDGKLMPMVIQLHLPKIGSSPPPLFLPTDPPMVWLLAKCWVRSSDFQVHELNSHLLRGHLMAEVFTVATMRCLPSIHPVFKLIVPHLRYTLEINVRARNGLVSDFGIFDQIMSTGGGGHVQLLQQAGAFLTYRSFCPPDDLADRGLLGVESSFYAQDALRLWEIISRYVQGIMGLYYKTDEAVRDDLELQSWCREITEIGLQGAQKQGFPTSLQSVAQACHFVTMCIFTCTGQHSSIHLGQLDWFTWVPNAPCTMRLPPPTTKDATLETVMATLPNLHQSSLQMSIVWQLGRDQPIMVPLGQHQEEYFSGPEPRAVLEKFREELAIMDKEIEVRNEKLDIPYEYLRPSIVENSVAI
Experimental: A 15-LO inhibitory activity was measured by a partially modified process of a process of Auerbach et al. (Auerbach B. J, et al., Anal. Biochem.: 201, 375-80, 1992). That is, 15-LO obtained from reticulocyte of rabbit and each of test compounds dissolved in DMSO (final concentration: 1%) were preincubated (4° C., 15 minutes) in phosphoric acid buffer (pH 7.4) and 256 μM linoleic acid was further added, followed by incubation (4° C., 10 minutes). The amount of 15-HETE produced as a result of incubation was determined by spectrophotometry (OD660nm) and 50% production inhibitory concentration (μM) against 15-LO of each test compound was calculated. Compounds (R-3) and (R-4) (edaravone) of the following formulas were used as a control drug.

[6] = tested on: lipid peroxidation in retina homogenate; assay: Retina migration properties: ex vivo retinal lipid peroxidation production inhibition; assay type: in vivo; details: SD male rats, retina taken after 30 minutes
Experimental: Retina migration properties of the compounds of the present invention were evaluated. To SD male rats (one group: 3 rats, 6 weeks old), a solution or suspension prepared by dissolving or suspending each of the test compounds in a 0.1N hydrochloric acid solution or a 1% poly oxy ethylene hydrogenated castor oil (NIKKOL HCO-60) solution was orally administered. After 30 minutes, both eyes were extracted and the retina was separated under ice cooling. A 5% homogenate solution of the retina was prepared in a 0.1M tris-hydrochloric acid buffer (pH 7.4) under ice cooling using a polytron homogenizer for a trace amount (NS-310E: manufactured by Nichion Irika Kiki Co., Ltd.) and, after autoxidation at 37° C. for one hour, the amount of lipid peroxidation produced was determined by a thiobarbituric acid process (MASUGI et al., vitamin 51, 21-29, 1977). A 30% inhibitory dose (ID30) was determined from the inhibition ratio at each dose. As is apparent from the results, the compounds of the present invention have an ex vivo retinal lipid peroxidation production inhibitory action and is also excellent in retina migration properties.

SMILES | IC50 [1] [µM] | In vivo antioxidation action 50% inhibitory concentration (ID50), Intraperitoneal administration [2] [mg/kg] | In vivo antioxidation action 50% inhibitory concentration (ID50), Oral administration [2] [mg/kg] | Ex vivo lipid peroxidation inhibition inhibition ratio (%) Brain [3] [%] | Ex vivo lipid peroxidation inhibition inhibition ratio (%) Heart [3] [%] | Ex vivo lipid peroxidation inhibition inhibition ratio (%) Kidney [3] [%] | LD50 at 7 days [4] [mg/kg] | IC50 (5-lipoxygenase (5-LO)) [nM] | IC50 [5] [nM] | melting point [°C] | 5-LO, percentage given after >10 (5-lipoxygenase (5-LO)) [%] | Lipid peroxidation inhibition 30% inhibitory concentration (ID30, oral administration) in ex vivo retina [6] [mg/kg]
Cc1c(C)c2c(c(C)c1O)CCC(C)(C(=O)Nc1ccc(-n3ccnc3)cc1)O2 (stereo not drawn) [Compound R-2, reference compound] | 0.23 | 20 | 53 | 45 | 57 | 84 | – | – | – | – | – | –
Cc1c(C)c2c(c(C)c1N)CC(C)(C(=O)N1CCN(c3ccc(-n4ccnc4)cc3)CC1)O2 (racemic) [Compound B-1-1, (±)-(5-amino-2,4,6,7-tetramethyldihydrobenzofuran-2-yl)-[4-(4-imidazol-1-ylphenyl)-piperazin-1-yl]carboxamide] | – | 4.4 | 19 | 96 | 88 | 95 | – | – | – | – | – | –
Cc1c(C)c2c(c(C)c1N)CC(C)(CNc1ccc(-c3ccn[nH]3)cc1)O2 (racemic) [Compound B-2-5-1, 4-(±)-(5-amino-2,4,6,7-tetramethyldihydrobenzofuran-2-ylmethylamino)-phenyl-5-1H-pyrazole] | 0.42 | 16 | 17 | 96 | 88 | 88 | > 2000 | 160 | 1400 | – | – | –
Cc1c(C)c2c(c(C)c1O)CC(C)(C(=O)Nc1ccc(-n3ccnc3)cc1)O2 (stereo not drawn) [Compound R-1, reference compound] | 0.23 | >30 | >30 | 68 | 59 | 75 | – | – | – | – | – | –
Cc1c(C)c2c(c(C)c1N)CC(C)(CN1CCN(c3ccc(-c4ccn[nH]4)cc3)CC1)O2 (stereo not drawn) [Compound B-1-34] | – | – | – | – | – | – | – | 162 | 5560 | 205 to 207 | – | –
Cc1c(C)c2c(c(C)c1N)CC(C)(CN1CCC(c3ccccc3)CC1)O2 (stereo not drawn) [Compound R-3, reference compound] | – | – | – | – | – | – | < 300 | > 10000 | 3260 | – | 34 | –
Cc1c(C)c2c(c(C)c1N)CC(C)(CN1CCN(c3ccc(-n4ccnc4)cc3)CC1)O2 (racemic) [Compound B-1-2, 4-(±)-(5-amino-2,4,6,7-tetramethyldihydrobenzofuran-2-ylmethyl)-1-(4-imidazol-1-ylphenyl)piperazine] | – | 27 | 13 | 79 | 93 | 89 | – | – | – | – | – | 5.7
CC1=NN(c2ccccc2)C(=O)C1 [Compound R-4, edaravone] | – | – | – | – | – | – | – | > 10000 | 5570 | – | 32 | –
